This note sets out measurements from patent US20040005294A1, “IGFBP-3 in the diagnosis and treatment of cancer” (priority 2002, published 2004).

Format in all cases: cell-based, human
In experiment [1] the test system is PI3K in 1799 cells. As to the kind of experiment: PI3K assay of immunoprecipitates. The settings on record: 10^−7 M, IGF-I activated. How it is done: Approximately 5×10^6 1799 cells were treated with 10^−7 M deguelin or 0.1% DMSO for different time periods (0-24 h) in the absence of any additional stimulatory growth factors. PI3K in these cells was then activated by treatment with 50 ng/mL IGF-I for 15 min. Cells were lylsed, and PI3K was immunoprecipitated from 500 μg of total cell extracts with 5 μL of rabbit antibody against full-length rat p85 PI3K (Upstate Biotechnology, Inc.), which coprecipitates the p110 catalytic subunit of PI3K, and 20 μL of protein A-sepharose beads (Amersham Pharmacia Biotech). PI3K activity in the immunoprecipitates was analyzed using bovine brain extract (Type I; Sigma-Aldrich), which contains a mixture of phosphatidylinositol, phosphatidylinositol 4-phosphate, and phosphatidylinositol 4,5-bisphosphate as a substrate, as described (Hsu et al., 2000). Jurkat cell lysates (Upstate Biotechnology, Inc.) and IGF-I-activated […] NSCLC cell lysates were used as positive controls.

In experiment [2] the test system is squamous HBE cells. The experiment is described as follows: MTT proliferation assay, squamous HBE cells. Particulars: 1 day. On the technique in general: Tetrazolium assays rely on reduction of a dye to a coloured formazan, in cell work by metabolically active cells.
In experiment [3] the test system is 1799 cells. As to the kind of experiment: Apoptosis by APO-BrdU (modified TUNEL) flow cytometry, 1799 cells. Here is the method:
NHBE, premalignant (1799 and 1198), and malignant (1170-1) HBE (2×10^6) cells were exposed to various doses of deguelin or to DMSO (0.1%) for 3 days. Apoptosis was assessed by morphology, by a flow cytometry-based, modified terminal deoxynucleotidyl transferase dUTP nick end labeling (TUNEL) assay, and by the detection of fragmented DNA. For morphology, live cells were observed by light microscopy using a ×100 objective. For TUNEL analysis, both adherent and nonadherent cells were harvested and pooled, fixed with 1% paraformaldehyde and 70% ethanol, and processed using the APO-BrdU staining kit (Phoenix Flow Systems, San Diego, Calif.), a modified TUNEL assay, as described (Lee et al., 2002). Cells treated with DMSO were used to gate the control nonapoptotic populations and as a reference for cells treated with deguelin. An internal control (HL-60 cells treated with camptothecin to induce apoptosis) provided in the apoptosis detection kit was also used to ensure that the TUNEL reaction was occurring during the staining procedure. For the detection of fragmented nucleosomal DNA, cells were processed using the TACS apoptotic DNA laddering kit (Trevigen Inc., Gaithersburg, Md.), according to the manufacturer's recommended protocol.
To determine whether deguelin-induced antiproliferative effects on premalignant HBE cells were mediated through the inhibition of the PI3K/Akt pathway, 2×10^5 1799 cells/well or 1×10 ^6 squamous HBE cells/well in six-well plates were infected with 5×10 ^3 particles/cell of a control virus (Ad5CMV) or with 1×10^3 or 5×10^3 particles/cell of Ad5CMV-MyrAkt-HA, an adenoviral vector that expresses a constitutively active Akt. (MyrAkt) in KSFM. After 1 day of infection, cells were treated with 10^−7M or 10^−6M deguelin, 2×10^−6 M or 4×10^−6M N-(4-hydroxyphenyl)retinamide (4-HPR), or 0.1% DMSO as a control and then incubated for 1 or 2 days. Apoptosis was analyzed using the APO-BrdU staining kit for TUNEL, Western blot analyses for caspase-3, and the cleavage of PARP.
For orientation: Flow cytometry measures light scatter and fluorescence of single cells or particles in a stream.

In experiment [4] the test system is NHBE cells. The experiment is described as follows: MTT proliferation assay, NHBE cells (deguelin). Particulars: 10^−9 M to 10^−7 M. How it is done:
To measure the effects of deguelin on cell proliferation, NHBE, 1799, 1198, 1170-1, and HB56B cells were plated at concentrations of 2×10^3 to 4×10^3 cells/well in 96-well plates. The next day, cells were treated with either 0.1% DMSO as a diluent control or various concentrations of deguelin (final DMSO concentration=0.1%). At the end of the assay time period, cell proliferation was measured by the 3-(4,5-dimethylthiazol-2-yl)-2,5-diphenyltetrazolium bromide (MTT) assay as described (Lee et al., 2002). Six replicate wells were used for each analysis, and data from replicate wells are presented as means with 95% confidence intervals (CIs). For some experiments, the drug concentration required to inhibit cell growth by 50% (IC50) was determined by interpolation from dose-response curves. At least three independent experiments were performed.

In experiment [5] the test system is PI3K/Akt pathway in 1799 cells. As to the kind of experiment: Immunoblot of pAkt and pGSK-3β, 1799 cells. The settings on record: 10^−7 M. Here is the method:
Whole cell lysates from 1×10^6 cells were prepared in lysis buffer as described (Lonardo et al., 2002). Equivalent amounts of protein were resolved by sodium dodecyl sulfate (SDS)-polyacrylamide gels (7.5%-12%) and transferred to a nitrocellulose membrane. After the membrane was blocked in Tris-buffered saline (TBS) containing 0.05% Tween 20 (TBST) and 5% (w/v) nonfat powdered milk, the membrane was incubated with primary antibody at the appropriate dilution in TBS-5% nonfat milk at 4° C. for 16 h. The membrane was then washed multiple times with TBST and incubated with the appropriate horseradish peroxidaseconjugated secondary antibody for 1 h at room temperature. The protein-antibody complexes were detected by enhanced chemilurminescence (ECL kit; Amersham, Arlington Heights, Ill.), according to the manufacturer's recommended protocol. […]
On the technique in general: In western blotting, separated proteins are transferred to a membrane and probed.

As for `COc1cc2c(cc1OC)[C@@H]1C(=O)c3ccc4c(c3O[C@@H]1CO2)C=CC(C)(C)O4` [deguelin, Deguelin], in experiment [1], the “decrease in PI3K activity compared with untreated cells” value was “approximately 55%”. Moreover, the “proliferation of control squamous HBE cells” value in experiment [2] (10^−7 M or 10^−6 M) is listed as “decreased proliferation of control squamous HBE cells in a dose-dependent manner”. Also, in experiment [2] (squamous HBE cells overexpressing constitutively active Akt, 10^−7 M to 10^−6 M), the “growth as percent of untreated cells” value was “approximately 95%”. Further, the cells undergoing apoptosis result in experiment [3] (10^−7 M, 2 days, 1799 cells infected with Ad5CMV-MyrAkt-HA) is reported as “less than 10%”; in experiment [3] (10^−7 M, 2 days, 1799 cells uninfected or infected with control adenovirus), “approximately 40%”; in experiment [3] (10^−7 M, 3 days) it was 92.2%; in experiment [3] (10^−8 M, 3 days), 68.5%; in experiment [3] (10^−9 M, 3 days), “approximately 3.3%”. The “effect on growth of NHBE cells” value in experiment [4] is “minimal effect”. Moreover, the “levels of pAkt and pGSK-3β” value in experiment [5] (0-24 h) is “time-dependent decrease in the levels of pAkt and pGSK-3β”. In addition, the pAkt level entry in experiment [5] (by 14 h) is “virtually undetectable”.
